Reference: patent US5506102A (priority 1993, dated 1996)

Molecular target: T1, PR-B (Homo sapiens, UniProt P06401)
T1 sequence (P06401 1-933): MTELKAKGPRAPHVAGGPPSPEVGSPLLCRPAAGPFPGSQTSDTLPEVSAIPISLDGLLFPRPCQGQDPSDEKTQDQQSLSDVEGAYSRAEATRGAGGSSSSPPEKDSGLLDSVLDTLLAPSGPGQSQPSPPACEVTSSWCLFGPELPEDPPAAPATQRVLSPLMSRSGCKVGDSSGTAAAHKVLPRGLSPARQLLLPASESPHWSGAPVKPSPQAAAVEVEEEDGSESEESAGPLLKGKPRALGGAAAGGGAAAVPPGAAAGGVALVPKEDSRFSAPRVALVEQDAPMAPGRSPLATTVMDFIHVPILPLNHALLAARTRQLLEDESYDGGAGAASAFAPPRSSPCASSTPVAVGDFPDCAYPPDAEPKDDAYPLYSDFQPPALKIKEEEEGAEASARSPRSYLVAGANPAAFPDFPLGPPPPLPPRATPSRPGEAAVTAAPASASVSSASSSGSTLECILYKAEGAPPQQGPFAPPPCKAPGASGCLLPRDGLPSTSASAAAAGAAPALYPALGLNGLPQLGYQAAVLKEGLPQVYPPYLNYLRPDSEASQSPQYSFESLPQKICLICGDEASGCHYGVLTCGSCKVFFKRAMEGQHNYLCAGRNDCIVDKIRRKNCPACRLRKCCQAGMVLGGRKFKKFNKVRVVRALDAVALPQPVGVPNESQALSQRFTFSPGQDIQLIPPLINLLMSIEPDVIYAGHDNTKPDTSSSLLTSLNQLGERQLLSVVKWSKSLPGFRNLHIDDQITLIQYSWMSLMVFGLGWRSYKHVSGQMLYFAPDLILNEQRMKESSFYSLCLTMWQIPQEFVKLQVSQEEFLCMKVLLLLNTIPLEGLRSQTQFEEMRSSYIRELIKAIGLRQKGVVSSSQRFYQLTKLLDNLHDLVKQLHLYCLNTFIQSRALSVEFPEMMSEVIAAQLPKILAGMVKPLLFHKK
Assay: PR-B transactivation of PRE2 tk-LUC
Assay type: cell-based
Conditions: CV-1, 10^-7 M progesterone, FIG. 4A
Protocol: FIGS. 4A-4B are a series of graphs showing CV-1 ([…]) or HepG2 (FIG. 4B) cells that were transiently transfected with either […] of phPR-B or phPR-A alone, or phPR-B in the presence of increasing concentrations of phPR-A, together with 5 µg/ml of the PRE2 tk-LUC reporter and 5 µg/ml of pCH110 as an internal control. HeLa cells (FIG. 4C) were transfected with either phPR-B or phPR-A together with 5 µg/ml of the pTAT2950 reporter and 5 µg/ml of pCH110 as an internal control. […] The relative luciferase activity is calculated by dividing the normalized luciferase value at a given point by that obtained in the absence of transfected receptor or ligand. The data shown represent the mean +/- average deviation from the mean of triplicate estimations;
Both reporter plasmids were digested with XhoI and HindIII restriction enzymes and a 6.7 Kb fragment from MMTV-LUC and a 0.12 Kb fragment from PRE2 tk-CAT were isolated and ligated, resulting in a plasmid called PRE2 tk-LUC.
Cells were seeded in 12-well, 96-well or 10 cm tissue culture plates. […] 20 μg of DNA/ml of transfection buffer were used in each transfection reaction. […]

CC(=O)[C@H]1CC[C@H]2[C@@H]3CCC4=CC(=O)CC[C@]4(C)[C@H]3CC[C@]12C [progesterone]
PR-B transcriptional activity on PRE2 tk-LUC: transcriptionally active
